Test results from patent US20230183818A1, “ANTIBIOTIC SUSCEPTIBILITY OF MICROORGANISMS AND RELATED MARKERS, COMPOSITIONS, METHODS AND SYSTEMS” (priority 2018, published 2023).
≈ marks a conversion by molar mass, not a printed value.

Test system: Neisseria gonorrhoeae
Details: resistant isolates, all time points (0-15 min)
Method: Cultures were diluted (5X) into HFB. Each isolate culture was split into “treated” and “control” tubes.
During incubation, samples were collected for RNA sequencing at 5, 10, and 15 min (300 µL aliquot of sample was mixed into 600 µL of Qiagen RNA Protect Reagent (Qiagen, Hilden, Germany) for immediate RNA stabilization).
RNA was extracted using the Enzymatic Lysis of Bacteria protocol of the Qiagen RNeasy Mini Kit and processed according to the manufacturer’s protocol. DNA digestion was performed during extraction using the Qiagen RNase-Free DNase Set.
The quality of extracted RNA was measured using an Agilent 2200 TapeStation (Agilent, Santa Clara, CA, USA). Extracted RNA samples were prepared for sequencing using the NEBNext Ultra RNA Library Prep Kit for Illumina (New England Biolabs, Ipswitch, MA, USA) and the NEBNExt Multiplex Oligos for Illumina. […] Raw reads from the sequenced libraries were subjected to quality control to filter out low-quality reads and trim the adaptor sequences using Trimmomatic (version 0.35).
The reads were aligned to the FA 1090 strain of N. gonorrhoeae (NCBI Reference Sequence: NC_002946.2) using Bowtie2 (version 2.2.5) and quantified using the Subread package (version 1.5.0-p1). A pseudocount of 1 was added to the gene quantification; gene expression was defined in transcripts per million (TPM). […]

**Q.** With `O=C(O)c1cn(C2CC2)c2cc(N3CCNCC3)c(F)cc2c1=O` [Ciprofloxacin, ciprofloxacin] as the molecule, how does the “transcriptional response in resistant isolates” value read?
**A.** did not significantly respond

Same assay, conditions: susceptible isolates, 15 min exposure

**Q.** Which “expression response of the six candidate markers (porB, rpmB, tig, yebC, pilB, cysK)” value does the source give for `O=C(O)c1cn(C2CC2)c2cc(N3CCNCC3)c(F)cc2c1=O` [Ciprofloxacin, ciprofloxacin] here?
**A.** downregulation

Test system: Neisseria gonorrhoeae
Details: Neisseria gonorrhoeae; cited from earlier work

**Q.** Which results are given for `O=C(O)c1cn(C2CC2)c2cc(N3CCNCC3)c(F)cc2c1=O` [Ciprofloxacin, ciprofloxacin]?
**A.** resistant MIC breakpoint: 1.00 microgram/mL; susceptible MIC breakpoint: 0.06 microgram/mL

Same assay, conditions: cited from earlier work

**Q.** For `CCn1cc(C(=O)O)c(=O)c2cc(F)c(N3CCNC(C)C3)c(F)c21` (stereo not shown) [Lomefloxacin], which “MIC Breakpoint, I (intermediate)” value is on record?
**A.** 0.25 to 1 µg/mL

**Q.** What about the “MIC Breakpoint, R (resistant)” value of the same molecule?
**A.** ≥2 µg/mL

**Q.** And the “MIC Breakpoint, S (susceptible)” value?
**A.** ≤ 0.12 µg/mL

**Q.** With `CO/N=C(\C(=O)N[C@@H]1C(=O)N2C(C(=O)O)=C(CSc3nc(=O)c(=O)[nH]n3C)CS[C@H]12)c1csc(N)n1` [Ceftriaxone] as the molecule, how does the “MIC Breakpoint, S (susceptible)” value read?
**A.** ≤ 0.25 µg/mL

**Q.** Which “MIC Breakpoint, I (intermediate)” value does the source give for Penicillin here?
**A.** 0.12 to 1 µg/mL

**Q.** What about the “MIC Breakpoint, R (resistant)” value of the same molecule?
**A.** ≥2 µg/mL

**Q.** And the “MIC Breakpoint, S (susceptible)” value?
**A.** ≤ 0.06 µg/mL

**Q.** With `CO/N=C(\C(=O)N[C@@H]1C(=O)N2C(C(=O)O)=CCS[C@H]12)c1csc(N)n1` [Ceftizoxime] as the molecule, how does the “MIC Breakpoint, S (susceptible)” value read?
**A.** ≤ 0.5 µg/mL

**Q.** Which “MIC Breakpoint, S (susceptible)” value does the source give for `CO/N=C(\C(=O)N[C@@H]1C(=O)N2C(C(=O)O)=C(C)CS[C@H]12)c1csc(N)n1` [Cefetamet] here?
**A.** ≤ 0.5 µg/mL

**Q.** Which “MIC Breakpoint, I (intermediate)” value does the source give for `CO[C@@]1(NC(=O)Cc2cccs2)C(=O)N2C(C(=O)O)=C(COC(N)=O)CS[C@@H]21` [Cefoxitin] here?
**A.** 4 µg/mL (≈ 9.36 µM)

**Q.** What about the “MIC Breakpoint, R (resistant)” value of the same molecule?
**A.** ≥8 µg/mL

**Q.** And the “MIC Breakpoint, S (susceptible)” value?
**A.** ≤2 µg/mL

**Q.** With `O=C(O)c1cn(C2CC2)c2cc(N3CCNCC3)c(F)cc2c1=O` [Ciprofloxacin, ciprofloxacin] as the molecule, how does the “MIC Breakpoint, I (intermediate)” value read?
**A.** 0.12 to 0.5 µg/mL

**Q.** And the “MIC Breakpoint, R (resistant)” value?
**A.** ≥1 µg/mL

**Q.** And the “MIC Breakpoint, S (susceptible)” value?
**A.** ≤ 0.06 µg/mL

**Q.** Which results are given for `CN[C@@H]1[C@H](O)[C@H](NC)[C@H]2O[C@@]3(O)C(=O)C[C@@H](C)O[C@H]3O[C@@H]2[C@H]1O` [Spectinomycin]?
**A.** MIC Breakpoint, I (intermediate): 64 µg/mL (≈ 193 µM); MIC Breakpoint, R (resistant): ≥ 128 µg/mL; MIC Breakpoint, S (susceptible): ≤ 32 µg/mL

**Q.** For `CO/N=C(\C(=O)N[C@@H]1C(=O)N2C(C(=O)[O-])=C(C[N+]3(C)CCCC3)CS[C@H]12)c1csc(N)n1` [Cefepime], which “MIC Breakpoint, S (susceptible)” value is on record?
**A.** ≤ 0.5 µg/mL

**Q.** Which “MIC Breakpoint, I (intermediate)” value does the source give for `CN1CCN(c2c(F)cc3c(=O)c(C(=O)O)cn(CCF)c3c2F)CC1` [Fleroxacin] here?
**A.** 0.5 µg/mL (≈ 1.35 µM)

**Q.** And the “MIC Breakpoint, R (resistant)” value?
**A.** ≥1 µg/mL

**Q.** And the “MIC Breakpoint, S (susceptible)” value?
**A.** ≤ 0.25 µg/mL

**Q.** With `CO/N=C(\C(=O)N[C@@H]1C(=O)N2C(C(=O)O)=C(COC(N)=O)CS[C@H]12)c1ccco1` [Cefuroxime] as the molecule, how does the “MIC Breakpoint, I (intermediate)” value read?
**A.** 2 µg/mL (≈ 4.71 µM)

**Q.** And the “MIC Breakpoint, R (resistant)” value?
**A.** ≥4 µg/mL

**Q.** What about the “MIC Breakpoint, S (susceptible)” value of the same molecule?
**A.** ≤1 µg/mL

**Q.** Which “MIC Breakpoint, S (susceptible)” value does the source give for `CC(C)(O/N=C(\C(=O)N[C@@H]1C(=O)N2C(C(=O)[O-])=C(C[n+]3ccccc3)CS[C@H]12)c1csc(N)n1)C(=O)O` [Ceftazidime] here?
**A.** ≤ 0.5 µg/mL

**Q.** With `CCn1cc(C(=O)O)c(=O)c2cc(F)c(N3CCNCC3)nc21` [Enoxacin] as the molecule, how does the “MIC Breakpoint, I (intermediate)” value read?
**A.** 1 µg/mL (≈ 3.12 µM)

**Q.** And the “MIC Breakpoint, R (resistant)” value?
**A.** ≥2 µg/mL

**Q.** What about the “MIC Breakpoint, S (susceptible)” value of the same molecule?
**A.** ≤ 0.5 µg/mL

**Q.** Which “MIC Breakpoint, S (susceptible)” value does the source give for `CO/N=C(\C(=O)N[C@@H]1C(=O)N2C(C(=O)O)=C(COC(C)=O)CS[C@H]12)c1csc(N)n1` [Cefotaxime] here?
**A.** ≤ 0.5 µg/mL

**Q.** What does the source list for `CO[C@@]1(NC(=O)CSCC#N)C(=O)N2C(C(=O)O)=C(CSc3nnnn3C)CS[C@@H]21` [Cefmetazole]?
**A.** MIC Breakpoint, I (intermediate): 4 µg/mL (≈ 8.48 µM); MIC Breakpoint, R (resistant): ≥8 µg/mL; MIC Breakpoint, S (susceptible): ≤2 µg/mL
